Measured values taken from PubChem BioAssay (NCI).
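Protocol summary: plate cells (96-well), add compound at 5 concentrations, incubate 48 h, interpolate endpoints linearly. GI50 is the concentration that inhibits growth by half. TGI marks complete inhibition of growth.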

How the values were obtained:
Assay in all cases: NCI tumour cell line growth inhibition, 48 h
SF-268 CNS = tested on: SF-268 CNS
UACC-62 melanoma = tested on: UACC-62 melanoma
EKVX NSCLC = tested on: EKVX NSCLC
SN12C renal = tested on: SN12C renal
A498 renal = tested on: A498 renal
OVCAR-5 ovarian = tested on: OVCAR-5 ovarian
SK-OV-3 ovarian = tested on: SK-OV-3 ovarian
ACHN renal = tested on: ACHN renal
786-0 renal = tested on: 786-0 renal
SK-MEL-28 melanoma = tested on: SK-MEL-28 melanoma
OVCAR-8 ovarian = tested on: OVCAR-8 ovarian
NCI-H23 lung = tested on: NCI-H23 lung
CAKI-1 renal = tested on: CAKI-1 renal
SK-MEL-5 melanoma = tested on: SK-MEL-5 melanoma
LOX IMVI melanoma = tested on: LOX IMVI melanoma
SNB-75 CNS = tested on: SNB-75 CNS
PC-3 prostate = tested on: PC-3 prostate
SNB-19 CNS = tested on: SNB-19 CNS
HOP-62 NSCLC = tested on: HOP-62 NSCLC
SK-MEL-2 melanoma = tested on: SK-MEL-2 melanoma
CCRF-CEM leukemia = tested on: CCRF-CEM leukemia
OVCAR-3 ovarian = tested on: OVCAR-3 ovarian
COLO 205 colon = tested on: COLO 205 colon
BT-549 breast = tested on: BT-549 breast
NCI/ADR-RES ovarian = tested on: NCI/ADR-RES ovarian
SW-620 colon = tested on: SW-620 colon
HS 578T breast = tested on: HS 578T breast
UACC-257 melanoma = tested on: UACC-257 melanoma
DU-145 prostate = tested on: DU-145 prostate

Question: Which GI50 (SF-268 CNS) does the source give for `CCOC(=O)C1=C(C)N=C2SC=C(c3ccccc3)N2[C@H]1c1cn[nH]c1-c1ccc(Cl)cc1` here?
Answer: 3.65 µM

Question: What about the TGI (SF-268 CNS) of the same compound?
Answer: 16.6 µM

Question: And the GI50 (UACC-62 melanoma)?
Answer: 2.85 µM

Question: And the TGI (UACC-62 melanoma)?
Answer: 12.5 µM

Question: And the GI50 (EKVX NSCLC)?
Answer: 7.68 µM

Question: And the TGI (EKVX NSCLC)?
Answer: 22.3 µM

Question: What about the GI50 (SN12C renal) of the same compound?
Answer: 4.51 µM

Question: What about the TGI (SN12C renal) of the same compound?
Answer: 17.3 µM

Question: What about the GI50 (A498 renal) of the same compound?
Answer: 5.37 µM

Question: What about the TGI (A498 renal) of the same compound?
Answer: 18.2 µM

Question: What about the GI50 (OVCAR-5 ovarian) of the same compound?
Answer: 6.06 µM

Question: What about the TGI (OVCAR-5 ovarian) of the same compound?
Answer: 19.9 µM

Question: And the GI50 (SK-OV-3 ovarian)?
Answer: 7.39 µM

Question: What about the TGI (SK-OV-3 ovarian) of the same compound?
Answer: 20.1 µM

Question: What about the GI50 (ACHN renal) of the same compound?
Answer: 3.03 µM

Question: What about the TGI (ACHN renal) of the same compound?
Answer: 11.7 µM

Question: And the GI50 (786-0 renal)?
Answer: 5.2 µM

Question: And the TGI (786-0 renal)?
Answer: 17 µM

Question: And the GI50 (SK-MEL-28 melanoma)?
Answer: 4.92 µM

Question: And the TGI (SK-MEL-28 melanoma)?
Answer: 16.8 µM

Question: What about the GI50 (OVCAR-8 ovarian) of the same compound?
Answer: 4.46 µM

Question: What about the TGI (OVCAR-8 ovarian) of the same compound?
Answer: 19.6 µM

Question: What about the GI50 (NCI-H23 lung) of the same compound?
Answer: 4.64 µM

Question: What about the TGI (NCI-H23 lung) of the same compound?
Answer: 19.6 µM

Question: What about the GI50 (CAKI-1 renal) of the same compound?
Answer: 1.76 µM

Question: What about the TGI (CAKI-1 renal) of the same compound?
Answer: 3.56 µM

Question: And the GI50 (SK-MEL-5 melanoma)?
Answer: 3.22 µM

Question: And the TGI (SK-MEL-5 melanoma)?
Answer: 12 µM

Question: What about the GI50 (LOX IMVI melanoma) of the same compound?
Answer: 1.46 µM

Question: And the TGI (LOX IMVI melanoma)?
Answer: 3.43 µM

Question: What about the GI50 (SNB-75 CNS) of the same compound?
Answer: 5.05 µM

Question: What about the TGI (SNB-75 CNS) of the same compound?
Answer: 18.3 µM

Question: And the GI50 (PC-3 prostate)?
Answer: 3.98 µM

Question: And the TGI (PC-3 prostate)?
Answer: 17.3 µM

Question: What about the GI50 (SNB-19 CNS) of the same compound?
Answer: 7.65 µM

Question: And the TGI (SNB-19 CNS)?
Answer: 20.7 µM

Question: And the GI50 (HOP-62 NSCLC)?
Answer: 7.09 µM

Question: What about the TGI (HOP-62 NSCLC) of the same compound?
Answer: 22 µM

Question: What about the GI50 (SK-MEL-2 melanoma) of the same compound?
Answer: 6.21 µM

Question: And the TGI (SK-MEL-2 melanoma)?
Answer: 19.3 µM

Question: What about the GI50 (CCRF-CEM leukemia) of the same compound?
Answer: 3.12 µM

Question: What about the TGI (CCRF-CEM leukemia) of the same compound?
Answer: 14 µM

Question: And the GI50 (OVCAR-3 ovarian)?
Answer: 3.21 µM

Question: And the TGI (OVCAR-3 ovarian)?
Answer: 12 µM

Question: And the GI50 (COLO 205 colon)?
Answer: 3.53 µM

Question: And the TGI (COLO 205 colon)?
Answer: 15.1 µM

Question: What about the GI50 (BT-549 breast) of the same compound?
Answer: 3.84 µM

Question: What about the TGI (BT-549 breast) of the same compound?
Answer: 13.9 µM

Question: What about the GI50 (NCI/ADR-RES ovarian) of the same compound?
Answer: 5.97 µM

Question: What about the TGI (NCI/ADR-RES ovarian) of the same compound?
Answer: 27.6 µM

Question: And the GI50 (SW-620 colon)?
Answer: 3.84 µM

Question: What about the TGI (SW-620 colon) of the same compound?
Answer: 14.4 µM

Question: What about the GI50 (HS 578T breast) of the same compound?
Answer: 3.68 µM

Question: What about the TGI (HS 578T breast) of the same compound?
Answer: 34.5 µM

Question: And the GI50 (UACC-257 melanoma)?
Answer: 10.1 µM

Question: And the TGI (UACC-257 melanoma)?
Answer: 24.1 µM

Question: What about the GI50 (DU-145 prostate) of the same compound?
Answer: 6.12 µM
